Where two headings read alike, the source gives them in different places.

The source of these data is patent publication US4472386A, “5-Fluoro-(β-uridine or 2'-deoxy-β-uridine) derivatives, a process for producing the same and a carcinostatic agent containing the same” (Toyama Chemical Co., Ltd., priority 1978, dated 1984).

Data set [1] concerns Ehrlich ascites carcinoma. The experiment in a line: Inhibition of Ehrlich solid tumor in mice, oral administration starting six days after inoculation (Table 2). Type of data set: in vivo, ddY mice. Particulars: for T/C (average tumor weight ratio between test group and control group): day 21. The method, then:
(§1) 1. Experiment on the inhibition of Ehrlich solid tumor
Ehrlich ascites carcinoma was subcutaneously inoculated into the inguinal region of ddY mice (5 weeks old, male, 8 mice per group) with 3×10^6 cells per mouse. Six days after the inoculation, a test drug dissolved or suspended in 0.5% CMC solution was administered orally to the test group successively once daily for 10 days, while the same quantity as above of 0.5% CMC solution was orally administered to the control group. Twenty one days after the inoculation, the tumor was excised and weighed, from which the average tumor weight ratio between the test group and the control group (T/C) was determined.

In data set [2] the test system is Sarcoma-180 ascites tumor. Kind of data set: Inhibition of Sarcoma-180 ascites tumor in mice, intravenous administration (Table 3). Type of data set: in vivo, ddY mice. To be noted: for T/C (average tumor weight ratio between test group and control group): Sarcoma-180, day 10. As to the method: 2. Experiment on the inhibition of Sarcoma-180 ascites tumor
Sarcoma-180 ascites tumor was subcutaneously inoculated into the right inguinal region of ddY mice (5 weeks old, male, 8 mice per group) with 3×10^6 cells per mouse. Twenty four hours after the inoculation,a test drug dissolved in 10% polyethylene glycol was administered intravenously to the test group successively once daily for 7 days, while the same quantity as above of 10% polyethylene glycol was intravenously administered to the control group. Ten days after the inoculation, the tumor was excised and weighed, from which the average tumor weight ratio between the test group and the control group (T/C) was determined.

Data set [3] has as its system Ehrlich ascites carcinoma. Kind of data set: Inhibition of Ehrlich solid tumor in mice, intraperitoneal administration (Table 1). Format: in vivo, ddY mice. On the set-up: response vs control in vivo: dose or concentration left out as unconfirmed. Particulars: for response vs control in vivo: day 14. The method, then:
as §1
Ehrlich ascites carcinoma was subcutaneously inoculated into the right inguinal region of ddY mice (5 weeks old, male, 8 mice per group) with 3×10^6 cells per mouse.
24 Hours after the inoculation, a test drug suspended or dissolved in 5% HCO 60 (a product manufactured by Nikkol) was administered intraperitoneally successively once daily for 7 days. To the control group, the same quantity as above of 5% HCO 60 was intraperitoneally administered in the same manner. Fourteen days after the inoculation, the tumor was excised and weighed, from which the average tumor weight ratio between the test group and the control group (T/C) was determined.

Data set [4] concerns Ehrlich ascites carcinoma. The experiment in a line: Carcinostatic test, oral, ED values (Table 5). Particulars: Mus musculus, 336 h. Type of data set: in vivo, ddY mice. The method, then: Ehrlich ascites carcinoma was subcutaneously inoculated into the right inguinal region of ddY mice (5 weeks old, male, 8 mice per group) with 8×10^6 cells per mouse. Twenty four hours after the inoculation,5, 10, 20 or 40 mg/kg of a test drug suspended or dissolved in polyethylene glycol was administered orally to the test group successively once daily for 10 days, while the same quantity as above of 10% polyethylene glycol was administered orally to the control group. Fourteen days after the inoculation, the tumor was excised and weighed, from which the average tumor weight ratio between the test group and the control group (T/C) was calculated. ED value was determined by the least square method.

The nature of data set [5]: Acute toxicity test (b), oral LD50 (Table 4). To be noted: mouse, in vivo. As to the method: (b) The test compound was suspended in 0.25% CMC solution and administered orally to SLC-ddY mice (5 weeks old, male, 6 mice per group). The number of dead mice was counted over the subsequent 3 weeks. LD50 value was calculated according to the method of Van der Waerden.
The test system of another data set is SLC-ddY mice. Particulars: mouse, in vivo. The text has this:
(a) The test compound was suspended in 0.25% CMC solution and administered intraperitoneally to SLC-ddY mice (5 weeks old, male, 6 mice per group). The number of dead mice was counted over the subsequent three weeks.

The subject of the next data set is nucleotide-phosphorylase. To be noted: G. D. Birnie (1963); cited from earlier work.
For data set [6] the following is noted: cited from earlier work.
For data set [7] the following is noted: C. Heidelberger et al. (1958); cited from earlier work.
The conditions of data set [8]: C. Heidelberger et al. (1958); cited from earlier work. The source holds these as a separate data set.
Where [9] appears, read: 60 mg/kg orally once daily for 10 days.
[10] abbreviates: 60 mg/kg orally once daily for 10 days from day 6, Ehrlich.
The mark [11] stands for this setting: 10 mg/kg i.v. once daily for 7 days.
Setting [12] is: 40 mg/kg i.p. once daily for 7 days.
Setting [13] is: Mus musculus, ip, 336 h, Ehrlich, read-out: T/C (average tumor weight ratio between test group and control group).
Setting [14] is: oral once daily for 10 days, least square method, read-out: ED30.
[15] abbreviates: oral once daily for 10 days, least square method, read-out: ED40.
[16] abbreviates: 5 mg/kg i.v. once daily for 7 days.
[17] abbreviates: Mus musculus, Ehrlich, ip, 336 h, read-out: T/C (average tumor weight ratio between test group and control group).
Where [18] appears, read: oral, 3 weeks, Van der Waerden method.

As a reminder, the LD50 is the dose expected to kill half of the subjects tested. Consider `O=C(c1ccc2c(c1)OCO2)n1c(=O)c(F)cn([C@H]2C[C@H](O)[C@@H](CO)O2)c1=O` [compound 27], for which the Body weight change in data set [1] (setting [9]) was -0.5 g; in data set [2] (setting [11]), “+4.0 g”; in [3] (setting [12]), “+6.4 g”. The “T/C (average tumor weight ratio between test group and control group)” value in data set [1] (setting [10]) is 30%; in [2] (setting [11]), 45.3%. In data set [2] (setting [11]), the “No. of surviving mice/No. of total mice used” value is given as 8/8. The response vs control in vivo in data set [3] (setting [13]) stood at 27.1%. The ED30 in data set [4] (setting [14]) was 6.4 mg/kg. Further, the ED40 in data set [4] (setting [15]) was determined as 12 mg/kg. In addition, the LD50 at 504 h in data set [5] (po) was ≥ 2290 mg/kg. In the data set on SLC-ddY mice, the “Number of dead mice” value is recorded as “no dead mice”.
For `O=C(c1ccc(F)cc1)n1c(=O)c(F)cn([C@H]2C[C@H](O)[C@@H](CO)O2)c1=O` [compound 2], the Body weight change was -0.4 g in [1] (setting [9]), “+4.1 g” in data set [2] (setting [11]) and “+6.8 g” in [3] (setting [12]). For the same molecule, the “T/C (average tumor weight ratio between test group and control group)” value in data set [1] (setting [10]) is reported as 36.8%; in data set [2] (setting [11]), 46.2%. Further, in data set [2] (setting [11]), the “No. of surviving mice/No. of total mice used” value is on record as 8/8. The response vs control in vivo in data set [3] (setting [13]) came out at 23.2%. Besides, the ED30 in data set [4] (setting [14]) was determined as 11 mg/kg. In addition, in [4] (setting [15]), the ED40 is 20 mg/kg. In addition, in data set [5] (po), the LD50 at 504 h was determined as 2070 mg/kg. Also, the “Number of dead mice” value in the data set on SLC-ddY mice is “no dead mice”.
`O=c1[nH]cc(F)c(=O)[nH]1` [5-Fu, 5-fluorouracil, reference compound]: the Body weight change in data set [1] (30 mg/kg orally once daily for 10 days) is -3.8 g. Also, the “T/C (average tumor weight ratio between test group and control group)” value in data set [1] (30 mg/kg orally once daily for 10 days from day 6, Ehrlich) is given as 39.7%. For the same molecule, in data set [2] (setting [16]), the Body weight change entry is “+4.0 g”; the “No. of surviving mice/No. of total mice used” value is given as 8/8; the “T/C (average tumor weight ratio between test group and control group)” value is reported as 59.7%. Also, the Body weight change result in data set [3] (20 mg/kg i.p. once daily for 7 days) was “+4.1 g”. In data set [3] (setting [17]), the response vs control in vivo at 20 mg/kg was found to be 49.9%. In data set [4] (po), this molecule had an ED30 of 15 mg/kg and an ED40 of 25 mg/kg. Further, the LD50 at 504 h in data set [5] (setting [18]) is 259 mg/kg.
Turning to `O=c1[nH]c(=O)n([C@H]2C[C@H](O)[C@@H](CO)O2)cc1F` [FUDR, 5-fluoro-2'-deoxy-β-uridine, reference compound], the “decomposition by nucleotide-phosphorylase to yield 5-fluorouracil” value with nucleotide-phosphorylase is reported as “readily decomposed by nucleotide-phosphorylase”. Further, the persistency in vivo entry in data set [6] is “lacks persistency”. Moreover, in [6] (in vivo), the excretion result is reported as “excreted rapidly”. Besides, the results for the Body weight change in data set [1] (setting [9]), in data set [2] (setting [11]) and in data set [3] (setting [12]) were -2.7 g, “+3.9 g” and “+6.5 g”, respectively. Moreover, the “No. of surviving mice/No. of total mice used” value in data set [1] (setting [9]), in data set [2] (setting [11]) and in [3] (setting [12]) was 8/8 each time. Besides, the “T/C (average tumor weight ratio between test group and control group)” value in data set [1] (setting [10]) is reported as 48.6%; in data set [2] (setting [11]), 56.3%. Also, the response vs control in vivo at 40 mg/kg in data set [3] (setting [17]) was determined as 47.1%. Besides, in data set [7], the toxicity result is reported as “low toxicity”. Further, the ED30 in data set [4] (setting [14]) amounted to 19 mg/kg. Besides, the ED40 in data set [4] (setting [15]) worked out at 24 mg/kg. The molecule also yielded an LD50 at 504 h in data set [5] (setting [18]) of 1330 mg/kg. In [8], the “carcinostatic activity in vitro” value is reported as “intense carcinostatic activity in vitro”.
